Assay results from PMC12257397, “Scaffold Hopping Strategy toward New 4‑Aminoquinazolines Active Against Extracellular and Intracellular Mycobacterium tuberculosis” (ACS Medicinal Chemistry Letters, 2025).
Values after ≈ are worked out from the molar mass of the structure shown. Where two headings read alike, the source gives them in different places.

How the values were obtained:
[1] = tested on: M. tuberculosis H37Rv (ATCC 27294); test: MIC by resazurin reduction microplate assay (REMA); format: cell-based; conditions: Mycobacterium tuberculosis, converted from μg/mL to μM
[2] = tested on: Mycobacterium abscessus 103R; test: Antimicrobial spectrum MIC, M. abscessus; format: cell-based
[3] = tested on: Mycobacterium avium 2285S (smooth); test: Antimicrobial spectrum MIC, M. avium smooth; format: cell-based
[4] = tested on: Mycobacterium avium 2285R (rough); test: Antimicrobial spectrum MIC, M. avium rough; format: cell-based
[5] = tested on: Staphylococcus aureus (ATCC 29213); test: Antimicrobial spectrum MIC, S. aureus; format: cell-based
Escherichia coli RFM 795 = test: Antimicrobial spectrum MIC, E. coli; format: cell-based; conditions: Escherichia coli RFM 795 (lptD mutation)
[6] = tested on: M. tuberculosis H37Rv-LP (ATCC 25618); test: microbe, parasite or virus in culture; format: cell-based; conditions: concentration inhibiting 90% of growth, 5 days, read-out: MIC parental wild-type strain H37Rv-LP
in vitro [7] = conditions: human
[8] = tested on: Mycobacterium smegmatis mc2155; format: cell-based
in vitro [9] = conditions: human; remark: listed apart in the source
in vitro [10] = conditions: human; remark: listed apart in the source
[11] = Mycobacterium tuberculosis, 120 h

Row | Compound | MIC [1] [µM] | also measured
1 | COc1ccc2nc(C)nc(NCCc3ccc4ccccc4c3)c2c1 [17b] | 7.3 (≈ 2.51 µg/mL) | –
2 | COc1ccc2nc(C)nc(NCCc3ccccc3)c2c1 [9b] | 34.1 (≈ 10 µg/mL) | –
3 | Cc1nc(NCCc2ccccc2)c2ccccc2n1 [9a] | 38 (≈ 10 µg/mL) | –
4 | COc1ccc2nc(C)nc(NCCc3ccc(OC(F)(F)F)cc3)c2c1 [13b] | 13.3 (≈ 5.02 µg/mL) | –
5 | Cc1nc(NCCc2ccc(OC(F)(F)F)cc2)c2ccccc2n1 [13a] | 7.2 (≈ 2.5 µg/mL) | –
6 | CC[C@H]1OC(=O)[C@H](C)[C@@H](O[C@H]2C[C@@](C)(OC)[C@@H](O)[C@H](C)O2)[C@H](C)[C@@H](O[C@@H]2O[C@H](C)C[C@H](N(C)C)[C@H]2O)[C@](C)(OC)C[C@@H](C)C(=O)[C@H](C)[C@@H](O)[C@]1(C)O [25 (CLA), Clarithromycin, reference compound] | – | CIM 103R [2]: 0.5 µM; CIM 2285S [3]: 0.4 µM; CIM 2285R [4]: 1.4 µM
7 | CN[C@H](CC(C)C)C(=O)N[C@H]1C(=O)N[C@@H](CC(N)=O)C(=O)N[C@H]2C(=O)N[C@H]3C(=O)N[C@H](C(=O)N[C@H](C(=O)O)c4cc(O)cc(O)c4-c4cc3ccc4O)[C@H](O)c3ccc(c(Cl)c3)Oc3cc2cc(c3O[C@@H]2O[C@H](CO)[C@@H](O)[C@H](O)[C@H]2O[C@H]2C[C@](C)(N)[C@H](O)[C@H](C)O2)Oc2ccc(cc2Cl)[C@H]1O [26 (VAN), Vancomycin, reference compound] | – | CIM 29213 [5]: 2.9 µM
8 | COc1ccc2nc(C)nc(NCC(c3ccccc3)c3ccccc3)c2c1 [12b] | 27.1 (≈ 10 µg/mL) | –
9 | COc1ccc2nc(C)nc(NCCc3ccc(C)cc3)c2c1 [15b] | 16.3 (≈ 5.01 µg/mL) | –
10 | Cc1nc(NCC(c2ccccc2)c2ccccc2)c2ccccc2n1 [12a] | 29.5 (≈ 10 µg/mL) | –
11 | COc1ccc(CCNc2nc(C)nc3ccc(OC)cc23)cc1 [10b] | 30.9 (≈ 9.99 µg/mL) | –
12 | Cc1nc(NCC(c2ccccc2)c2ccccc2)c2cc(Br)ccc2n1 [12c] | > 23.9 | –
13 | Cc1nc(NCCc2ccc(S(N)(=O)=O)cc2)c2cc(I)ccc2n1 [14d] | > 85.4 | –
14 | c1ccc2cc(CCNc3ncnc4ccccc34)ccc2c1 [17e] | > 16.7 | –
15 | CC1(C)S[C@@H]2[C@H](NC(=O)[C@H](N)c3ccccc3)C(=O)N2[C@H]1C(=O)O [27 (AMP), Ampicillin, reference compound] | – | CIM RFM 795 (Escherichia coli RFM 795): 12.0 µM
16 | Cc1nc(NCCCc2ccccc2)c2ccccc2n1 [18a] | 4.5 (≈ 1.25 µg/mL) | MIC [6, 11]: 1.6 µM (≈ 0.444 µg/mL); MIC [6]: 1.6 µM (≈ 0.444 µg/mL); CC50 at 72 h (in vitro [7]; CC50 HepG2+Gal): 2.6 µM; CC50 at 72 h (in vitro [7]; CC50 HepG2+Glu): 7.7 µM
17 | Cc1ccc(CCNc2nc(C)nc3ccccc23)cc1 [15a] | 18 (≈ 4.99 µg/mL) | –
18 | CCc1ccc(CCNc2ncnc3ccccc23)cc1 [16e] | 36 (≈ 9.99 µg/mL) | –
19 | Cc1ccc(CCNc2nc(C)nc3ccc(Br)cc23)cc1 [15c] | 7 (≈ 2.49 µg/mL) | –
20 | c1ccc(CCNc2ncnc3ccccc23)cc1 [9e] | 80.2 (≈ 20 µg/mL) | –
21 | NNC(=O)c1ccncc1 [19 (INH), isoniazid, reference compound] | 2.3 (≈ 0.315 µg/mL) | –
22 | CO[C@H]1/C=C/O[C@@]2(C)Oc3c(C)c(O)c4c(O)c(c(/C=N/N5CCN(C)CC5)c(O)c4c3C2=O)NC(=O)/C(C)=C\C=C\[C@H](C)[C@H](O)[C@@H](C)[C@@H](O)[C@@H](C)[C@H](OC(C)=O)[C@@H]1C [20 (RIF), rifampicin, reference compound] | – | MIC [6, 11]: 0.03 µM (≈ 0.0247 µg/mL); CIM mc2155 [8]: 48.6 µM
23 | Cc1nc(NCCc2ccc(S(N)(=O)=O)cc2)c2cc(Br)ccc2n1 [14c] | > 94.9 | –
24 | Cc1nc(NCCc2ccc(OC(F)(F)F)cc2)c2cc(I)ccc2n1 [13d] | 5.3 (≈ 2.51 µg/mL) | MIC [6, 11]: 3.7 µM (≈ 1.75 µg/mL); CC50 at 72 h (in vitro [9]): 7.4 µM; CC50 at 72 h (in vitro [10]): 7.3 µM; CC50 at 72 h (in vitro [7]; CC50 HepG2+Gal): 2.2 µM; CC50 at 72 h (in vitro [7]; CC50 HepG2+Glu): 3.4 µM
25 | Cc1nc(NCCc2ccc(Cl)cc2)c2cc(I)ccc2n1 [11d] | 0.73 (≈ 0.309 µg/mL) | MIC [6, 11]: 0.84 µM (≈ 0.356 µg/mL); CC50 at 72 h (in vitro [7]; CC50 HepG2+Gal): 3.3 µM; CC50 at 72 h (in vitro [7]; CC50 HepG2+Glu): 4.2 µM
26 | NS(=O)(=O)c1ccc(CCNc2ncnc3ccccc23)cc1 [14e] | > 122 | –
